Laboratory results from patent US20210290676A1, “IMPROVING THE EFFICACY AND SAFETY OF ADOPTIVE CELLULAR THERAPIES” (University of Southern California, priority 2018, published 2021).

Tests used:
Format in all cases: cell-based, human
[1] = system: CD8+CD45RA+CCR7+CD62L+ T cells; assay: Flow cytometry for CD8, CD45RA, CCR7 and CD62L on inhibitor-treated T cells; conditions: cells cultured for 14 days
Protocol: (§1) DAY 0: Blood was obtained from unidentified donor. After RBC lysis, PBMC were collected using Ficoll-Hypaque separation. […] T cells were cultured in three different conditions: • 1. XVIVO 15 medium (Lonza) with IL2 50 IU/ml, CD3 antibody (30 ng/ml) and CD28 antibody (30 ng/ml). • 2. XVIVO 15 medium (Lonza) with CD3 antibody (30 ng/ml) and CD28 antibody (30 ng/ml). • 3. XVIVO 15 medium (Lonza) with IL2 50 IU/ml DAY 1: Cells were plated in a 6-well plate at a density of 1 million cells in 2 ml/of media (as described above) and treated with different inhibitors
(§2) A second aliquot of the cells cultured for 13 days with all the treatments listed above (1-21) was washed with PBS+1% FBS, stained with CD8-PerCP, CD45RA-FITC, CCR7-PE and CD62L-APC (5% Y/100 μl/sample for each of 4 antibodies) at 4° C. for 1 h, washed twice with PBS+100 FBS and analyzed on flow cytometer to check if these drugs are enriching T stem cells showing surface expression of CD8+CD45RA+CCR7+CD62L+.
(§3) Day 0: Blood was obtained from unidentified donor. After RBC lysis, PBMC were collected using Ficoll-Hypaque separation. 200 million T cells were isolated from PBMCs using CD3 microbeads. T cells were cultured overnight in XVIVO 15 medium (Lonza) with IL2 (50 IU/ml), 30 ng/ml of CD3 and CD28 antibodies
(§4) Day 1: Cells were plated in 24-well plates at a density of 0.3 million cells/ml in each well and treated with different drugs.
(§5) On day 7, culture medium was replaced with fresh medium with fresh drugs.
(§6) On day 13, culture medium was replaced with fresh medium and fresh drugs. Half of the cells were transferred to 6-well plates.
as §2, with “14” for “13”, “above” for “above (1-21)”, “(5 ul/100 ul/sample” for “(5% Y/100 μl/sample”, “PBS+1%” for “PBS+100”, “enriching for” for “enriching”, “T” for “T stem”

[2] = system: Pgp+ (DiOC2(3)-dye effluxing cells) and CD62L+ T cells; assay: DiOC2(3) dye efflux plus CD62L-APC staining, flow cytometry of inhibitor-treated T cells; conditions: treatment for 13 days, IL2 + CD3 and CD28 antibodies
Protocol: (§7) The use of P-glycoprotein (Pgp)-mediated efflux of DiOC2(3) to isolate stem like T cells for adoptive cellular therapy has been described in application no. […] In the following examples, DiOC2(3) staining was used to study the effect of different inhibitors on generation of stem like T cells.
as §1
(§8) The cell growth medium was changed in 6-well plates and fresh drugs were added at same concentration for one more week.
(§9) […] (DAY 11): Culture medium was changed and fresh drugs were added in 6-well plates.
(§10) Subsequently, cells were washed with RPMI medium and dye was effluxed at 37° C. for 90 min. Cells were washed with […], stained with CD62L-APC (5 μl/100 μl/sample) at 4° C. for 1 h, washed twice with PBS+1% FBS and analyzed on flow cytometer to check if these drugs treatment leads to increase in Pgp+/CD62L positive population.
as §3, §4, §5, §6
(§11) Day 14: An aliquot of cells with all the treatments listed above (for 13 days) was used to stain the cells with DiOC2(3) (60 ng/ml in RPMI medium) at 4° C. for 40 min, washed with RPMI medium, DiOC2(3) dye was effluxed at 37° C. for 90 min, washed with PBS+1% FBS, stained with CD62L-APC antibody. CD62L is a marker for resting T cells. (5 μl/100 μl/sample) at 4° C. for 1 h, washed twice with PBS+1% FBS and analyzed on flow cytometer to check if these drugs are affecting the dye-effluxing or Pgp+ (i.e., DiOC2(3)-dull) T-cell population.

[3] = system: Pgp+ (DiOC2(3)-dye effluxing) T cells; assay: DiOC2(3) dye efflux flow cytometry of inhibitor-treated T cells; conditions: treatment for 13 days, IL2 + CD3 and CD28 antibodies
Protocol: as §7, §1, §8, §9, §10, §3, §4, §5, §6, §11

[4] = system: CD45RA+CCR7+CD62L+ T cells; assay: Flow cytometry for CD45RA, CCR7 and CD62L on inhibitor-treated T cells (all T cells); conditions: cells cultured for 14 days
Protocol: as §1, §2, §3, §4, §5, §6
as §2, with “14” for “13”, “above” for “above (1-21)”, “(5 ul/100 ul/sample” for “(5% Y/100 μl/sample”, “PBS+1%” for “PBS+100”, “enriching for” for “enriching”, “T” for “T stem”

SMILES | GATE P4 CD8(PerCP)+, CD45RA(FITC)+, CCR7 (PE)+, CD62L(APC) ([1]; 100 nM) | GATE P4 CD8(PerCP)+, CD45RA(FITC)+, CCR7 (PE)+, CD62L(APC) ([1]; 500 nM) | p5: double +ve pgp+ and CD62L-APC+ from Live cells ([2]; 100 nM) | p5: double +ve pgp+ and CD62L-APC+ from Live cells ([2]; 500 nM) | p2: pgp+ from Live cells ([3]; 100 nM) | p2: pgp+ from Live cells ([3]; 500 nM) | GATE P6 CD45RA(FITC)+, CCR7 (PE)+, CD62L(APC) ([4]; 100 nM) | GATE P6 CD45RA(FITC)+, CCR7 (PE)+, CD62L(APC) ([4]; 500 nM)
Cc1ccc(Cl)c(Nc2ccccc2C(=O)O)c1Cl [MECLO] | 57.65% | 75.78% | 3.74 | 3.72 | 22.22 | 20.11 | 53.02% | 66.64%
O=C1CN=C(c2ccc[nH]2)c2cc(Cl)ccc2N1 [R05335] | – | 79.9% | 2.55 | 2.3 | 14.71 | 16.22 | – | 69.95%
CCN(c1cc(-c2ccc(CN3CCOCC3)cc2)cc(C(=O)NCc2c(C)cc(C)[nH]c2=O)c1C)C1CCOCC1 [TAZE] | 59.72% | – | 14.5 | – | 42.9 | – | 52.24% | –
